From PubChem BioAssay AID330 (DTP/NCI, 2004)
“And” between values parts separate entries of the source, which are not always exact repeats. Equal values may be shown once. Toxic doses and inconclusive results are not listed. The calls were made as follows: active = survival T/C of 150% or more; inactive = T/C below 125% in these data.

System: P388 leukemia ip, CD2F1 mice, survival T/C
Test: NCI In Vivo Anticancer Drug Screen. Data for tumor model P388 Leukemia (intraperitoneal) in CD2F1 (CDF1) mice
Conditions: endpoint: median survival time, higher = longer survival
Outline: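 Mice carrying the transplanted tumor received test compound or vehicle. Survival was recorded in each group, and the value is the treated-group measurement divided by that of the vehicle-treated control group.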

[1] = dose: 100.0 mg/kg/injection, schedule: Q04DX002 (ip), vehicle: saline with Tween-80
[2] = dose: 100.0 mg/kg/injection, schedule: Q01DX005 (ip), vehicle: saline with Tween-80
[3] = dose: 200.0 mg/kg/injection, schedule: Q01DX005 (ip), vehicle: saline with Tween-80
[4] = dose: 25.0 mg/kg/injection, schedule: Q01DX005 (ip), vehicle: saline
[5] = dose: 50.0 mg/kg/injection, schedule: Q01DX009 (ip), vehicle: Klucel (hydroxypropylcellulose) (HPC)
[6] = dose: 100.0 mg/kg/injection, schedule: Q01DX009 (ip), vehicle: Klucel (hydroxypropylcellulose) (HPC)
[7] = dose: 100.0 mg/kg/injection, schedule: Q04DX003 (ip), vehicle: Klucel (hydroxypropylcellulose) (HPC)
[8] = dose: 200.0 mg/kg/injection, schedule: Q01DX009 (ip), vehicle: Klucel (hydroxypropylcellulose) (HPC)
[9] = dose: 200.0 mg/kg/injection, schedule: Q04DX003 (ip), vehicle: Klucel (hydroxypropylcellulose) (HPC)
[10] = dose: 400.0 mg/kg/injection, schedule: Q04DX003 (ip), vehicle: Klucel (hydroxypropylcellulose) (HPC)
[11] = dose: 60.0 mg/kg/injection, schedule: Q01DX005 (ip), vehicle: saline with Tween-80
[12] = dose: 120.0 mg/kg/injection, schedule: Q01DX005 (ip), vehicle: saline with Tween-80
[13] = dose: 240.0 mg/kg/injection, schedule: Q01DX005 (ip), vehicle: saline with Tween-80
[14] = dose: 100.0 mg/kg/injection, schedule: Q01DX009 (ip), vehicle: saline with Tween-80
[15] = dose: 200.0 mg/kg/injection, schedule: Q01DX009 (ip), vehicle: saline with Tween-80
[16] = dose: 100.0 mg/kg/injection, schedule: Q01DX001 (ip), vehicle: saline with Tween-80
[17] = dose: 200.0 mg/kg/injection, schedule: Q01DX001 (ip), vehicle: saline with Tween-80
[18] = dose: 400.0 mg/kg/injection, schedule: Q01DX001 (ip), vehicle: saline with Tween-80
[19] = dose: 50.0 mg/kg/injection, schedule: Q01DX005 (ip), vehicle: Klucel (hydroxypropylcellulose) (HPC)
[20] = dose: 100.0 mg/kg/injection, schedule: Q01DX005 (ip), vehicle: Klucel (hydroxypropylcellulose) (HPC)
[21] = dose: 100.0 mg/kg/injection, schedule: Q01DX001 (ip), vehicle: Klucel (hydroxypropylcellulose) (HPC)
[22] = dose: 200.0 mg/kg/injection, schedule: Q01DX001 (ip), vehicle: Klucel (hydroxypropylcellulose) (HPC)
[23] = dose: 400.0 mg/kg/injection, schedule: Q01DX001 (ip), vehicle: Klucel (hydroxypropylcellulose) (HPC)

Measured: T/C

COc1ccc(N=Nc2c(C)nn(C(=S)SC)c2C)cc1
inactive: [1] 100 % of control | dose: 200.0 mg/kg/injection, schedule: Q04DX002 (ip), vehicle: saline with Tween-80 105 % of control | dose: 400.0 mg/kg/injection, schedule: Q04DX002 (ip), vehicle: saline with Tween-80 109 % of control

Nc1c(C(=O)NCc2ccccc2)c2nc3c(C(=O)NCc4ccccc4)cccc3oc-2cc1=O
inactive: dose: 1.56 mg/kg/injection, schedule: Q01DX005 (ip), vehicle: saline with Tween-80 99 % of control | dose: 3.12 mg/kg/injection, schedule: Q01DX005 (ip), vehicle: saline with Tween-80 89 % of control | dose: 6.25 mg/kg/injection, schedule: Q01DX005 (ip), vehicle: saline with Tween-80 89 % of control | [2] 86 % of control | [3] 100 % of control

CCC(=O)[O][Sn]([CH3])([CH3])[O][Sn]([CH3])([CH3])[O]C(=O)CC
inactive: dose: 6.25 mg/kg/injection, schedule: Q01DX005 (ip), vehicle: saline 117 % of control | dose: 12.5 mg/kg/injection, schedule: Q01DX005 (ip), vehicle: saline 117 % of control and 118 % of control | [4] 120 % of control

Cc1ccc(N=Nc2c(O)ccc3n[nH]nc23)cc1
inactive: [5] 99 % of control | [6] 101 % of control and 105 % of control | [7] 100 % of control | [8] 99 % of control and 109 % of control | [9] 100 % of control | dose: 400.0 mg/kg/injection, schedule: Q01DX009 (ip), vehicle: Klucel (hydroxypropylcellulose) (HPC) 100 % of control and 109 % of control | [10] 93 % of control

O=C(O)c1ccc(=O)[nH]c1
inactive: dose: 100.0 mg/kg/injection, schedule: Q01DX009 (ip), vehicle: saline 101 % of control and 107 % of control | dose: 200.0 mg/kg/injection, schedule: Q01DX009 (ip), vehicle: saline 110 % of control and 118 % of control | dose: 400.0 mg/kg/injection, schedule: Q01DX009 (ip), vehicle: saline 100 % of control and 109 % of control | dose: 600.0 mg/kg/injection, schedule: Q01DX009 (ip), vehicle: saline 104 % of control and 106 % of control

CC1=CC2C3C(=O)NC(=O)C3C1C1C3C(=O)NC(=O)C3C21 (stereo not drawn)
inactive: [11] 98 % of control | [12] 104 % of control | [13] 95 % of control

O=CNc1ccc(O)cc1
inactive: [14] 100 % of control | [15] 109 % of control | dose: 400.0 mg/kg/injection, schedule: Q01DX009 (ip), vehicle: saline with Tween-80 118 % of control

CC(C)(C)OC1COCCO1 (stereo not drawn)
inactive: [11] 102 % of control | [12] 99 % of control | [13] 93 % of control

CN1C(c2ccccc2)=C(C#N)C(=O)CC(c2ccco2)N1C (stereo not drawn)
inactive: [11] 98 % of control | [12] 92 % of control | [13] 89 % of control

Cc1ccc(N=C(N)NC#N)cc1
inactive: dose: 50.0 mg/kg/injection, schedule: Q01DX009 (ip), vehicle: saline with Tween-80 100 % of control | [14] 90 % of control | dose: 100.0 mg/kg/injection, schedule: Q04DX003 (ip), vehicle: saline with Tween-80 91 % of control | [15] 90 % of control | dose: 200.0 mg/kg/injection, schedule: Q04DX003 (ip), vehicle: saline with Tween-80 87 % of control

O=C1Oc2ccccc2OC1c1ccccc1 (stereo not drawn)
inactive: [5] 102 % of control | [6] 106 % of control | [8] 97 % of control

O=P(c1ccccc1)(c1ccccc1)c1ccccc1.O=P(c1ccccc1)(c1ccccc1)c1ccccc1.O=S(=O)(O)O.[Ni]
inactive: dose: 6.25 mg/kg/injection, schedule: Q01DX009 (ip), vehicle: Klucel (hydroxypropylcellulose) (HPC) 99 % of control | dose: 12.5 mg/kg/injection, schedule: Q01DX009 (ip), vehicle: Klucel (hydroxypropylcellulose) (HPC) 111 % of control | dose: 25.0 mg/kg/injection, schedule: Q01DX009 (ip), vehicle: Klucel (hydroxypropylcellulose) (HPC) 107 % of control

CSC(/C=C1\C=CC=CN1Cc1ccccc1)=NC#N
inactive: dose: 25.0 mg/kg/injection, schedule: Q04DX002 (ip), vehicle: saline with Tween-80 100 % of control | dose: 50.0 mg/kg/injection, schedule: Q04DX002 (ip), vehicle: saline with Tween-80 92 % of control | [1] 99 % of control

CN(C)CCC(=O)c1ccc(C(=O)CCN(C)C)cc1
inactive: [4] 108 % of control | dose: 50.0 mg/kg/injection, schedule: Q01DX005 (ip), vehicle: saline 107 % of control | dose: 100.0 mg/kg/injection, schedule: Q01DX005 (ip), vehicle: saline 107 % of control

COc1ccc(C(O)C2CCCN(c3ccccc3)S2(=O)=O)cc1 (stereo not drawn)
inactive: [16] 101 % of control | [17] 94 % of control | [18] 98 % of control

O=C(c1ccccc1)C(C(=O)c1ccccc1)S(=O)(=O)c1ccccc1
inactive: dose: 50.0 mg/kg/injection, schedule: Q01DX005 (ip), vehicle: saline with Tween-80 93 % of control | [2] 93 % of control | [3] 91 % of control

CC1=C(O)C(=O)C=C2C1=CC=C1[C@@]2(C)CCC2(C)[C@@H]3C[C@@H](C)C(=O)C[C@]3(C)CC[C@]12C (stereo partly drawn)
inactive: dose: 12.5 mg/kg/injection, schedule: Q01DX005 (ip), vehicle: Klucel (hydroxypropylcellulose) (HPC) 109 % of control | dose: 25.0 mg/kg/injection, schedule: Q01DX005 (ip), vehicle: Klucel (hydroxypropylcellulose) (HPC) 101 % of control | [19] 90 % of control | [20] 97 % of control | dose: 260.0 mg/kg/injection, schedule: Q01DX005 (ip), vehicle: Klucel (hydroxypropylcellulose) (HPC) 97 % of control

CCOC(=O)COc1cc2c(cc1C(C)c1ccc(OCC)cc1)OCO2 (stereo not drawn)
inactive: [19] 93 % of control | [20] 93 % of control | dose: 200.0 mg/kg/injection, schedule: Q01DX005 (ip), vehicle: Klucel (hydroxypropylcellulose) (HPC) 88 % of control

CCN(CC)CC(C)(C)C(=O)/C=C/c1ccc(Cl)cc1
inactive: dose: 60.0 mg/kg/injection, schedule: Q01DX005 (ip), vehicle: saline 110 % of control | dose: 120.0 mg/kg/injection, schedule: Q01DX005 (ip), vehicle: saline 116 % of control

CC(C)(C)c1ccc(SS(=O)(=O)c2ccc(C(C)(C)C)cc2)cc1
inactive: [16] 98 % of control | [7] 97 % of control | [17] 100 % of control | [9] 104 % of control | [18] 97 % of control | [10] 105 % of control

N#Cc1nnn2c1nc(N)c1c(Cl)cccc12
inactive: [11] 98 % of control | [12] 100 % of control | [13] 100 % of control

CCCCCCCCCCCCCCCC(=O)N(CCCN)C(C)(C)CCC(C)(C)N(CCCN)C(=O)CCCCCCCCCCCCCCC
inactive: dose: 1.56 mg/kg/injection, schedule: Q01DX009 (ip), vehicle: water 101 % of control | dose: 3.13 mg/kg/injection, schedule: Q01DX009 (ip), vehicle: water 107 % of control | dose: 6.25 mg/kg/injection, schedule: Q01DX009 (ip), vehicle: water 114 % of control | dose: 12.5 mg/kg/injection, schedule: Q01DX009 (ip), vehicle: water 113 % of control | dose: 25.0 mg/kg/injection, schedule: Q01DX009 (ip), vehicle: water 93 % of control

O=Cc1c(Cl)n(C(=O)c2ccc(F)cc2)c2ccccc12
inactive: [21] 97 % of control | [22] 113 % of control | [23] 96 % of control

c1ccc2c(NCCCCCCCNc3c4ccccc4nc4ccccc34)c3ccccc3nc2c1
inactive: dose: 10.0 mg/kg/injection, schedule: Q01DX009 (ip), vehicle: other 112 % of control
active: dose: 2.5 mg/kg/injection, schedule: Q01DX009 (ip), vehicle: other 157 % of control | dose: 5.0 mg/kg/injection, schedule: Q01DX009 (ip), vehicle: other 155 % of control and 163 % of control and 175 % of control

O=C1CC(C2(c3ccc4c(c3)OCO4)SCCCS2)CO1 (stereo not drawn)
inactive: [21] 101 % of control | [22] 106 % of control | [23] 99 % of control

CN(C)Cc1c(N=Nc2cccc3ccccc23)[nH]c2ccccc12
inactive: [5] 106 % of control | [6] 101 % of control | [8] 105 % of control
